From the RepoRT retention time repository (doi:10.1021/acs.analchem.2c02893)

Test: RP, Thermo Scientific Acclaim RSLC 120 C18, 100 × 2.1 mm, 2.2 µm, 30 °C, 0.2 mL/min, estimated dead time 1.1 min; A: 90% water + 10% methanol + 0.01% formic acid + 5 mM ammonium formate, pH 3.61; B: methanol + 0.01% formic acid + 5 mM ammonium formate, pH 3.61; gradient (min/%B) 0/1 1/1 2/39 13/99.9 15/99.9 15.1/1 20.1/1
Settings: stereoisomer not certain

| SMILES | LC retention time |
| --- | --- |
| CCS(=O)c1c(C#N)nn(-c2c(Cl)cc(C(F)(F)F)cc2Cl)c1N (centres undefined) [Ethiprole] | 9.32 min |
| C#CCOc1cc(-n2nc(C(C)(C)C)oc2=O)c(Cl)cc1Cl [Oxadiargyl] | 11.2 min |
| CON(C)C(=O)Nc1ccc(Cl)cc1 [Monolinuron] | 7.76 min |
| COc1ccc2c(c1O)-c1c3c(cc4c1C(C2)N(C)CC4)OCO3 (centres undefined) [Bulbocapnine] | 4.36 min |
| CCOc1ccc2c3c1OC1C(O)C=CC4C(C2)N(C)CCC341 (centres undefined) [Morphine-Ethyl] | 4.08 min |
| CN(C)C(=O)Nc1cccc(C(F)(F)F)c1 [Fluometuron] | 7.85 min |
| CCCc1nn(C)c2c(=O)[nH]c(-c3cc(C(=O)CCl)ccc3OCC)nc12 [Chlorodenafil] | 10.2 min |
| Cc1c(NC=O)c(=O)n(-c2ccccc2)n1C [Antipyrine- 4-Formylamino] | 3.96 min |
| OCCN1CCN(CCCN2c3ccccc3Sc3ccc(Cl)cc32)CC1 [Perphenazine] | 9.55 min |
| CCc1cccc(CC)c1N(COC)C(=O)CS(=O)(=O)O [Alachlor-ESA] | 7.19 min |
| O=S(O)(O)=S [THJ] | 13.7 min |
| CCc1cc2c(s1)-n1c(C)nnc1CN=C2c1ccccc1 [Deschloroetizolam] | 8.43 min |
| O=C(O)CCCOc1ccc(Cl)cc1Cl [2.4-DB] | 10 min |
| O=C(O)CCCO [GHB Fragm 87] | 1.95 min |
| O=C1CN=C(c2ccccc2)c2cc(Cl)ccc2N1CC1CC1 [Prazepam] | 10.6 min |
| O=C1CCc2ccc(OCCCCN3CCN(c4cccc(Cl)c4Cl)CC3)cc2N1 [Aripiprazole] | 8.63 min |
| CC(C)C(C(=O)OC(C#N)c1cccc(Oc2ccccc2)c1)c1ccc(OC(F)F)cc1 (centres undefined) [Flucythrinate] | 12.7 min |

| SMILES | LC retention time |
| --- | --- |
| c1ccc2[nH]c(-c3cscn3)nc2c1 [Thiabendazole] | 6.15 min |
| O=C(c1cccc2ccccc12)c1cn(CCN2CCOCC2)c2cccc(O)c12 [JWH-200-M-4-OH-Ind] | 10.1 min |
| CCCc1nn(C)c2c(=O)[nH]c(-c3cc(C(=O)CN4CCN(CC)CC4)ccc3OCC)nc12 [Acetildenafil] | 7.01 min |
| COc1nc(C)nc(NC(=O)NS(=O)(=O)c2ccccc2Cl)n1 [Chlorsulfuron] | 6.54 min |
| CCNC(C)C(=O)c1ccc2c(c1)OCO2 (centres undefined) [Ethylone] | 4.04 min |
| CC(C)(C)NCC(O)c1cc(Cl)c(N)c(Cl)c1 (centres undefined) [Clenbuterol] | 4.76 min |
| CNCC(c1ccc(OC)cc1)C1(O)CCCCC1 (centres undefined) [Venlafaxine-N-Desmethyl (norvenlafaxine)] | 6.18 min |
| COc1ccc2c3c1OC1C(O)C=CC4C(C2)NCCC341 (centres undefined) [Codeine-Nor] | 3.5 min |
| NC(N)=NC(=O)c1nc(Cl)c(N2CCCCCC2)nc1N [HMA] | 3.23 min |
| CC(C)(C)C(O)C(=Cc1ccc(Cl)cc1Cl)n1cncn1 (centres undefined) [Diniconazole] | 11.5 min |
| CC(O)(CS(=O)(=O)c1ccc(F)cc1)C(=O)Nc1ccc(C#N)c(C(F)(F)F)c1 (centres undefined) [Bicalutamide] | 8.71 min |
| O=S(=O)(Oc1ccc(Cl)cc1)c1ccc(Cl)cc1 [Chlorfenson.Ovex.chlorofenizon.ephirsulfonate.ovatron] | 11.1 min |
| CCCN(CCC)C(=O)SCC [EPTC] | 10.7 min |
| COc1ncnc(NS(=O)(=O)c2ccc(N)cc2)c1OC [Sulfadoxine] | 4.75 min |
| CNC(=O)ON=CC(C)(C)S(C)(=O)=O [Aldicarb-sulfone (Aldoxycarb)] | 3.75 min |
| CNC(=C[N+](=O)[O-])NCCSCc1ccc(C[N+](C)(C)[O-])o1 [Ranitidine-N-oxide] | 3.43 min |
| CCCCCCCCCCCC[N+](CCO)(CCO)Cc1ccccc1 [Benzoxonium] | 11.3 min |
